“Also recorded” adds a separate entry of the source.
Legend:
[1] = system: GNMT; assay: GNMT gene expression by real-time RT-PCR (GNMT/GAPD ratio); type: cell-based, bovine
[2] = system: 3T3 L1 cells; assay: ATRA followed by osteogenic induction media; type: cell-based, murine
Method: 3T3 L1 cells were grown in media treated with 50-200 nM ATRA. Following ATRA treatment, cells were transferred to 6-well plates and exposed to osteogenic induction media containing DMEM, FBS, ascorbic acid 2-phosphate, dexamethasone, beta glycerophosphate, and vitamin D for 21 days.

[3] = system: Oct4, Sox2 and nanog; assay: RT-PCR for stem cell/pluripotency markers after ATRA; type: cell-based, bovine; settings: after ATRA treatment, data not shown
Method: To determine whether differentiation potential was restored, bovine somatic cells were cultured in T-75 flasks until confluent in CON, DMSO, or ATRA media (same RA as in Example 1).

[4] = system: bovine somatic cells; assay: ATRA followed by adipogenic induction cocktail
[5] = system: primary rat hepatocytes; assay: ATRA and adipogenic induction cocktail on primary hepatocytes; type: cell-based
Method: Primary rat hepatocytes were grown in media treated with 50-200 nM ATRA. Following treatment, cells were cultured under the same comparative conditions as described above for the bovine somatic cells, except an adipogenic induction cocktail (as described in EXAMPLE 2) was added to the T-75 flasks.

[6] = system: bovine serial nuclear transfer donor somatic cells; assay: Relative methylated cytosine by reverse-phase HPLC after ATRA treatment; type: cell-based; settings: 10-50 nM ATRA, cultured until confluent
Method: Bovine serial nuclear transfer donor somatic cells (a cell line that has never produced a successful live animal and which is characterized by low blastocyst development rates (<10%, P<0.001) and low pregnancy initiation rates (<1%, P<0.05)) were cultured in T-75 flasks until confluent in growth media (CON), or growth media treated with DMSO, or ATRA (DMSO vehicle); 10 nM, 50 nM, and 100 nM ATRA concentrations were used. Following […] treatment, the cells were collected and DNA from the cells was isolated. The DNA was then completely digested into single nucleotides for reverse-phase HPLC. Reverse-phase HPLC was performed as described by Cezar et al. to measure the relative levels of methylated cytosine residues.

[7] = 50-200 nM ATRA then osteogenic induction 21 days

With CC1=C(/C=C/C(C)=C/C=C/C(C)=C/C(=O)O)C(C)(C)CCC1 [ATRA, all-trans retinoic acid] the “GNMT gene expression (ratio of GNMT to GAPD)” value ([1]; ATRA-treated growth media, real-time RT-PCR) was “upregulation”, the “response of GNMT transcription to ATRA” value ([1]; prior experiments) was “dose response” and the “alizarin staining for calcium phosphate mineralization” value [2, 7] was “positive staining; also recorded: calcium phosphate mineralization”. The “alkaline phosphatase staining for osteoblast-like cells” value [2, 7] was “positive staining”, the “osteocalcin and cbfa1 expression (osteoblast-specific markers)” value ([2]; RT-PCR after ATRA and osteogenic induction) was “induction” and the “expression of Oct4, Sox2 and nanog” value [3] was “upregulation and strong expression”. For the same compound, the “oil red-O staining (lipid)” value ([4]; ATRA then adipogenic induction 11-12 days) was “positive”, the “PPARγ gene expression (adipocyte differentiation marker)” value ([4]; PCR after induction, data not shown) was “induction” and the “cell morphology during exposure to ATRA” value ([4]; structures similar to embryoid bodies) was “significant morphological changes”. The “cell proliferation (confluency)” value ([5]; 50-200 nM ATRA then adipogenic induction media, day 4) was “proliferated significantly”, the cell morphology ([5]; 50-200 nM ATRA, pronounced within 48 hours of induction media) was “Morphological changes” and the “reduction in methylated cytosine compared to CON” value [6] was 8-10%.
